Laboratory results published in paper PMC7278553, “Blocking interaction between SHP2 and PD‐1 denotes a novel opportunity for developing PD‐1 inhibitors” (EMBO Molecular Medicine, 2020).

Biological target: T1, SHP2 (Homo sapiens, UniProt Q06124)
T1 construct: gene PTPN11; recombinant hSHP2-FC (R&D Systems, 1894-SH-100)
T1 sequence (Q06124 2-593): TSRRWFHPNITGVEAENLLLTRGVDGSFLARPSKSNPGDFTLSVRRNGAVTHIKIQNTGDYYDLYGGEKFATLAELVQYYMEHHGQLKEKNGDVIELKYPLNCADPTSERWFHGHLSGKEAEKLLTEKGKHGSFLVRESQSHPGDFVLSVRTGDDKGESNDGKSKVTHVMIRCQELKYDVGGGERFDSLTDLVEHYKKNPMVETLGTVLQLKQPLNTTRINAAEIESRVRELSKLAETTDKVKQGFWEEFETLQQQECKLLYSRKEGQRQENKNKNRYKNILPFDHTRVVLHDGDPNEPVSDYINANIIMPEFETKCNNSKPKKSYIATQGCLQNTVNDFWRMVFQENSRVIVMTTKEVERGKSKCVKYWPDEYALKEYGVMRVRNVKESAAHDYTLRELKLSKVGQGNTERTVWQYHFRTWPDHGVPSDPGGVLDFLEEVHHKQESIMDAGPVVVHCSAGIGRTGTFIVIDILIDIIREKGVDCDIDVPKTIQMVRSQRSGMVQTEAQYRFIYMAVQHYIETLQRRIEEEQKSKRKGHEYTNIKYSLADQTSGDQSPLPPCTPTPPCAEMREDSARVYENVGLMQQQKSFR
T1 sequence (Q15116 235-264 partner): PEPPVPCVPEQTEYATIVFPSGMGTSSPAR
Test: ELISA: MB blocks binding of purified recombinant SHP2-Fc to coated phospho-ITSM PD-1 peptide; supported by co-IP and split-luciferase complementation in cells
Assay type: biochemical

CN(C)c1ccc2nc3ccc(N(C)C)cc3[s+]c2c1 [MB, 3,7‐bis(dimethylamino)‐5‐phenothiazinium chloride]
ELISA: MB blocks binding of purified recombinant SHP2-Fc to coated phospho-ITSM: MB dose‐dependently blocked the binding of SHP2 protein to coated Pep‐ITSM‐p248Y, unequivocally showing that MB directly blocked interaction
